In patent publication US20060121116A1, “Hydrogel for cell separation and method of separating cells” (priority 2003, published 2006):

System: human peripheral blood leucocytes
Assay: Migration capability of neutrophils: fMLP in soft agar under hydrogel layer
Assay type: cell-based
Settings: for Number of Cells in Hydrogel of the Invention: 37° C., 3 hours, 10^7 leucocytes applied; for Number of Cells in Soft Agar: microscopically observed
Description: Soft agar mediums (prepared by dissolving Nacalai Tesque's soft agar powder in a D′MEM (Dulbecco's Modification Eagle's Medium, by GIBCO, containing 10% FCS (Fetal Calf Serum)) having 0.6% of concentration and each containing 0 M, 10^−6 M, 10^−7 M or 10^−8 M of fMLP (N-formyl-methionyl-leucyl-phenylalanine, molecular weight 437.6, chemotactic peptide, produced by Sigma) were prepared at 42° C. Each medium was put into a polystyrene dish (mfd. by SOMILON) having a diameter of 35 mm in an amount of 1 ml (depth of medium, about 1 mm) each, and gelled therein at room temperature. The hydrogel-forming polymer (TGP-5) of the invention obtained in Production Example 7 was sterilized with EOG in the same manner as in Production Example 4. One g of the polymer was dissolved in 9 g of D′MEM medium at 4° C., and this was put on the above-mentioned soft agar gel in an amount of 0.5 ml (depth of the polymer solution, about 0.5 mm) each, and gelled at room temperature. The sol-gel transition temperature of the hydrogel was 18° C. On the hydrogel layer of the invention, a tissue culture insert (mfd. by NUNC) with a filter having a pore size of 8.0 μm was set, and 0.5 ml of a cell suspension containing 10^7 human peripheral blood leucocytes was put into the insert and set in an incubator at 37° C. This was statically set therein at 37° C. for 3 hours, and then the dish was taken out of the incubator. The dish was cooled on ice, the tissue culture insert was removed, and the hydrogel of the invention was converted into a sol state. The hydrogel of the invention that was liquid with cooling with ice was collected, diluted with physiological saline and centrifuged (3000 rpm, 5 minutes). The precipitated cell were re-suspended in 20 μl of physiological saline, and the number of the cell was counted to thereby determine the number of the neutrophils having moved into the hydrogel of the invention. After the hydrogel of the invention was removed, the number of the cell having moved into the soft agar was microscopically observed, and the result is shown in Table 1.

[1] = fMLP concentration in soft agar 10^−6 M
[2] = fMLP concentration in soft agar 10^−7 M
[3] = fMLP concentration in soft agar 10^−8 M

CSCC[C@H](NC=O)C(=O)N[C@@H](CC(C)C)C(=O)N[C@@H](Cc1ccccc1)C(=O)O [fMLP, N-formyl-methionyl-leucyl-phenylalanine]
Number of Cells in Hydrogel of the Invention [1]: 300
Number of Cells in Soft Agar [1]: numerous
Number of Cells in Hydrogel of the Invention [2]: 17,600
Number of Cells in Soft Agar [2]: many
Number of Cells in Hydrogel of the Invention [3]: 4,740
Number of Cells in Soft Agar [3]: a few
